Data: BindingDB's records for patent US12202839 (University of Virginia Patent Foundation, 2025)
pIC50: −log10 of the molar value.

Molecular target: Protein tyrosine phosphatase type IVA 3 (Homo sapiens, UniProt O75365)
Experiment: PTP4A3 Enzymatic Assay

Chain of Protein tyrosine phosphatase type IVA 3 (O75365 whole entry): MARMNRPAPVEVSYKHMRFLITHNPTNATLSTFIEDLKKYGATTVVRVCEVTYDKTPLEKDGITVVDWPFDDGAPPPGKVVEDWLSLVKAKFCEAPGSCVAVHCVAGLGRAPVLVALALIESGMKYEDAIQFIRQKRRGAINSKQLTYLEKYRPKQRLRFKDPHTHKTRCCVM

Q: How did the pIC50 turn out when `O=C1NC(=O)c2sc(-c3ccccc3)cc2C1=O` [US12202839, Compound 15] was run?
A: 6.79
